Test system: gastric cancer patients
Assay: Multivariable Cox proportional analysis of overall survival: adjuvant chemotherapy vs surgery only, Yonsei cohort, within each molecular subtype
Assay type: in vivo
Conditions: multivariate Cox
Description: It has been examined whether the molecular subtype of the present disclosure may predict the response to the systemic therapy. The Yonsei cohort included patients treated prior to establishment of adjuvant chemotherapy as standard of care. Thus, patients who have been treated with one of the following three assisted chemical therapy methods were able to compare patients who have undergone surgery only:
5-Fluorouracil (5-FU) Alone Therapy
5-FU and Platinum Doublet
Treatment of Systemic Therapy of Another Class in Addition to 5-FU
The inventors of the present disclosure performed a multivariable Cox proportional analysis of the overall survival rate, assisted chemical therapy, cancer operation, age, lymphovascular attack and perineuronal attack as covariates within each genetic group.
In Table 3, the hazard ratio (HR) was calculated using age, cancer stage, Lauren type, neural surrounding invasion state, and chemotherapy treatment as a regulator.

## O=c1[nH]cc(F)c(=O)[nH]1 [5-FU alone, 5-Fluorouracil]
Patient Group 1, VS no-chemotherapy
  Hazard Ratio (95% CI): 2.25 (0.61, 8.35)
Patient Group 2, VS no-chemotherapy
  Hazard Ratio (95% CI): 0.37 (0.14, 0.99)
Patient Group 2, VS no-chemotherapy, listed as 5-FU monotherapy
  Hazard Ratio (95% CI): 0.37
Patient Group 3, VS no-chemotherapy
  Hazard Ratio (95% CI): 0.99 (0.41, 2.38)
Patient Group 4, VS no-chemotherapy
  Hazard Ratio (95% CI): 0.73 (0.30, 1.79)

— patent US20240068044A1, “MARKER COMPOSITION FOR PREDICTING PROGNOSIS OF CANCER, METHOD FOR PROGNOSIS OF CANCER AND METHOD FOR PROVIDING INFORMATION FOR DETERMINING STRATEGY OF CANCER TREATMENT” (priority 2021, published 2024)
